Experimental data as given in patent publication US10253039B2, “Inhibitors of bacterial DNA gyrase with efficacy against gram-negative bacteria” (priority 2014, dated 2019).
≈ marks a conversion by molar mass, not a printed value.

What was measured:
Format in all cases: cell-based
[1] = system: Edwardsiella tarda; assay: MIC, microdilution in 96-well plates; conditions: D: Edwardsiella tarda
Procedure, shortened: (§1)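 Values come from visual inspection: the lowest concentration inhibiting growth with no turbidity. Strains grew in Luria-Bertani media at 37° C. with shaking for 16-18 hours after seeding at 1:10000, against triplicate 2-fold compound dilutions.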

[2] = system: E. coli BW25113; assay: MIC, microdilution in 96-well plates; conditions: Escherichia coli, BW25113, B: E. coli BW25113; read-out: MIC
Procedure, shortened: as §1

[3] = system: Staphylococcus saprophyticus subsp. saprophyticus; assay: MIC, 20-strain panel
Procedure, shortened: as §1

[4] = system: Shigella flexneri; assay: MIC, 20-strain panel; conditions: G: Shigella flexneri
Procedure, shortened: as §1

[5] = system: E. coli JW5503 (deltolC); assay: MIC, 20-strain panel; conditions: Escherichia coli, C: E. coli JW5503 (deltolC)
Procedure, shortened: as §1

[6] = system: Staphylococcus epidermidis; assay: MIC, 20-strain panel
Procedure, shortened: as §1

[7] = system: Salmonella enterica subsp. enterica typhimurium; assay: MIC, 20-strain panel; conditions: F: Salmonella enterica subsp. enterica Typhimurium
Procedure, shortened: as §1

[8] = system: Streptococcus pyogenes; assay: MIC, 20-strain panel
Procedure, shortened: as §1

[9] = system: Staphylococcus aureus subsp. aureus; assay: MIC, 20-strain panel; conditions: H: Staphylococcus aureus subsp. aureus, read-out: MIC
Procedure, shortened: as §1

[10] = system: Streptococcus agalactiae; assay: MIC, 20-strain panel
Procedure, shortened: as §1

[11] = system: Klebsiella pneumoniae subsp. pneumoniae; assay: MIC, 20-strain panel; conditions: E: Klebsiella pneumoniae subsp. pneumoniae
Procedure, shortened: as §1

[12] = system: E. coli MG1655; assay: MIC, 20-strain panel; conditions: Escherichia coli, MG1655, A: E. coli MG1655; read-out: MIC
Procedure, shortened: as §1

Q: For `Cc1c(S(=O)(=O)N[C@@H]2CCN(Cc3ccc(OC(C)C)cc3)C2)sc2ccc(Cl)cc12` [Compound 83], which MIC [1] is on record?
A: > 8 µg/mL

Q: What about the MIC [2] of the same molecule?
A: > 8 µg/mL

Q: And the MIC [3]?
A: > 8 µg/mL

Q: And the MIC [4]?
A: > 8 µg/mL

Q: And the MIC [5]?
A: 8 µg/mL (≈ 16.7 µM)

Q: And the MIC [6]?
A: 8 µg/mL (≈ 16.7 µM)

Q: And the MIC [7]?
A: > 8 µg/mL

Q: And the MIC [8]?
A: 8 µg/mL (≈ 16.7 µM)

Q: And the MIC [9]?
A: ~8 µg/mL (≈ 16.7 µM)

Q: What about the MIC [10] of the same molecule?
A: > 8 µg/mL

Q: What about the MIC [11] of the same molecule?
A: > 8 µg/mL

Q: And the MIC [12]?
A: > 8 µg/mL

Q: `CC(C)Oc1ccc(CN2CC[C@@H](NS(=O)(=O)c3cccc4cccnc34)C2)cc1` [Compound 84] was tested. Which MIC [1] did it give?
A: > 8 µg/mL

Q: What about the MIC [2] of the same molecule?
A: > 8 µg/mL

Q: And the MIC [3]?
A: > 8 µg/mL

Q: And the MIC [4]?
A: > 8 µg/mL

Q: And the MIC [5]?
A: 1 µg/mL (≈ 2.35 µM)

Q: And the MIC [6]?
A: > 8 µg/mL

Q: What about the MIC [7] of the same molecule?
A: > 8 µg/mL

Q: What about the MIC [8] of the same molecule?
A: > 8 µg/mL

Q: And the MIC [9]?
A: > 8 µg/mL

Q: What about the MIC [10] of the same molecule?
A: > 8 µg/mL

Q: What about the MIC [11] of the same molecule?
A: > 8 µg/mL

Q: What about the MIC [12] of the same molecule?
A: > 8 µg/mL

Q: What does the source list for `Cc1c(S(=O)(=O)N[C@@H]2CCN(Cc3ccc(OC4CC4)cc3)C2)sc2ccc(Cl)cc12` [Compound 85]?
A: MIC [1]: > 8 µg/mL; MIC [2]: > 8 µg/mL; MIC [3]: > 8 µg/mL; MIC [4]: > 8 µg/mL; MIC [5]: ~8 µg/mL (≈ 16.8 µM); MIC [6]: 4 µg/mL (≈ 8.38 µM); MIC [7]: > 8 µg/mL; MIC [8]: 8 µg/mL (≈ 16.8 µM); MIC [9]: ~8 µg/mL (≈ 16.8 µM); MIC [10]: > 8 µg/mL; MIC [11]: > 8 µg/mL; MIC [12]: > 8 µg/mL

Q: With `CSc1ccc(CN2CC[C@@H](NS(=O)(=O)c3cccc(C(F)(F)F)c3)C2)cc1` [Compound 86] as the molecule, how does the MIC [1] read?
A: > 8 µg/mL

Q: And the MIC [2]?
A: > 8 µg/mL

Q: And the MIC [3]?
A: > 8 µg/mL

Q: What about the MIC [4] of the same molecule?
A: > 8 µg/mL

Q: What about the MIC [5] of the same molecule?
A: 4 µg/mL (≈ 9.29 µM)

Q: And the MIC [6]?
A: > 8 µg/mL

Q: And the MIC [7]?
A: > 8 µg/mL

Q: And the MIC [8]?
A: > 8 µg/mL

Q: What about the MIC [9] of the same molecule?
A: > 8 µg/mL

Q: And the MIC [10]?
A: > 8 µg/mL

Q: What about the MIC [11] of the same molecule?
A: > 8 µg/mL

Q: And the MIC [12]?
A: > 8 µg/mL

Q: What does the source list for `O=S(=O)(N[C@@H]1CCN(Cc2ccc(OC(F)F)cc2)C1)c1cccc(C(F)(F)F)c1` [Compound 87]?
A: MIC [1]: > 8 µg/mL; MIC [2]: > 8 µg/mL; MIC [3]: > 8 µg/mL; MIC [4]: > 8 µg/mL; MIC [5]: 2 µg/mL (≈ 4.44 µM); MIC [6]: > 8 µg/mL; MIC [7]: > 8 µg/mL; MIC [8]: > 8 µg/mL; MIC [9]: > 8 µg/mL; MIC [10]: > 8 µg/mL; MIC [11]: > 8 µg/mL; MIC [12]: > 8 µg/mL

Q: Which MIC [1] does the source give for `COc1cc(CN2CC[C@@H](NS(=O)(=O)c3cccc(OC(F)(F)F)c3)C2)ccc1OC(C)C` [Compound 88] here?
A: > 8 µg/mL

Q: And the MIC [2]?
A: > 8 µg/mL

Q: What about the MIC [3] of the same molecule?
A: > 8 µg/mL

Q: What about the MIC [4] of the same molecule?
A: > 8 µg/mL

Q: What about the MIC [5] of the same molecule?
A: > 8 µg/mL

Q: What about the MIC [6] of the same molecule?
A: > 8 µg/mL

Q: What about the MIC [7] of the same molecule?
A: > 8 µg/mL

Q: What about the MIC [8] of the same molecule?
A: > 8 µg/mL

Q: What about the MIC [9] of the same molecule?
A: > 8 µg/mL

Q: And the MIC [10]?
A: > 8 µg/mL

Q: What about the MIC [11] of the same molecule?
A: > 8 µg/mL

Q: And the MIC [12]?
A: > 8 µg/mL

Q: With `O=S(=O)(N[C@@H]1CCN(Cc2ccc(OCC(F)F)cc2)C1)c1cccc(OC(F)(F)F)c1` [Compound 89] as the molecule, how does the MIC [1] read?
A: > 8 µg/mL

Q: What about the MIC [2] of the same molecule?
A: > 8 µg/mL

Q: What about the MIC [3] of the same molecule?
A: > 8 µg/mL

Q: And the MIC [4]?
A: > 8 µg/mL

Q: And the MIC [5]?
A: 0.5 µg/mL (≈ 1.04 µM)

Q: What about the MIC [6] of the same molecule?
A: > 8 µg/mL

Q: What about the MIC [7] of the same molecule?
A: 8 µg/mL (≈ 16.7 µM)

Q: What about the MIC [8] of the same molecule?
A: > 8 µg/mL

Q: What about the MIC [9] of the same molecule?
A: > 8 µg/mL

Q: And the MIC [10]?
A: > 8 µg/mL

Q: What about the MIC [11] of the same molecule?
A: > 8 µg/mL

Q: And the MIC [12]?
A: > 8 µg/mL

Q: What does the source list for `O=S(=O)(N[C@@H]1CCN(Cc2ccc(OC3CC3)cc2)C1)c1cc(C(F)(F)F)ccc1Cl` [Compound 90]?
A: MIC [1]: > 8 µg/mL; MIC [2]: ~8 µg/mL (≈ 16.8 µM); MIC [3]: > 8 µg/mL; MIC [4]: ~8 µg/mL (≈ 16.8 µM); MIC [5]: < 0.0625 µg/mL; MIC [6]: > 8 µg/mL; MIC [7]: 4 µg/mL (≈ 8.42 µM); MIC [8]: > 8 µg/mL; MIC [9]: > 8 µg/mL; MIC [10]: > 8 µg/mL; MIC [11]: > 8 µg/mL; MIC [12]: > 8 µg/mL

Q: For `CC(C)Oc1ccc(CN2CC[C@@H](NS(=O)(=O)c3cc(Cl)cc(C(F)(F)F)c3)C2)cc1` [Compound 92], which MIC [1] is on record?
A: > 8 µg/mL

Q: What about the MIC [2] of the same molecule?
A: > 8 µg/mL

Q: What about the MIC [3] of the same molecule?
A: > 8 µg/mL

Q: What about the MIC [4] of the same molecule?
A: > 8 µg/mL

Q: What about the MIC [5] of the same molecule?
A: 8 µg/mL (≈ 16.8 µM)

Q: And the MIC [6]?
A: > 8 µg/mL

Q: What about the MIC [7] of the same molecule?
A: > 8 µg/mL

Q: What about the MIC [8] of the same molecule?
A: > 8 µg/mL

Q: What about the MIC [9] of the same molecule?
A: > 8 µg/mL

Q: What about the MIC [10] of the same molecule?
A: > 8 µg/mL

Q: And the MIC [11]?
A: > 8 µg/mL

Q: What about the MIC [12] of the same molecule?
A: > 8 µg/mL

Q: For `CC(C)Oc1ccc(CN2CC[C@@H](NS(=O)(=O)c3cnc4ccccc4c3)C2)cc1` [Compound 93], which MIC [1] is on record?
A: > 8 µg/mL

Q: And the MIC [2]?
A: > 8 µg/mL

Q: And the MIC [3]?
A: > 8 µg/mL

Q: And the MIC [4]?
A: > 8 µg/mL

Q: What about the MIC [5] of the same molecule?
A: > 8 µg/mL

Q: And the MIC [6]?
A: > 8 µg/mL

Q: What about the MIC [7] of the same molecule?
A: > 8 µg/mL

Q: What about the MIC [8] of the same molecule?
A: > 8 µg/mL

Q: And the MIC [9]?
A: > 8 µg/mL

Q: And the MIC [10]?
A: > 8 µg/mL

Q: What about the MIC [11] of the same molecule?
A: > 8 µg/mL

Q: What about the MIC [12] of the same molecule?
A: > 8 µg/mL

Q: `O=S(=O)(N[C@@H]1CCN(Cc2ccc(OC3CC3)cc2)C1)c1cc(Cl)cc(C(F)(F)F)c1` [Compound 94] was tested. Which MIC [1] did it give?
A: > 8 µg/mL

Q: And the MIC [2]?
A: > 8 µg/mL

Q: And the MIC [3]?
A: > 8 µg/mL

Q: And the MIC [4]?
A: > 8 µg/mL

Q: What about the MIC [5] of the same molecule?
A: 8 µg/mL (≈ 16.8 µM)

Q: And the MIC [6]?
A: > 8 µg/mL

Q: And the MIC [7]?
A: > 8 µg/mL

Q: What about the MIC [8] of the same molecule?
A: > 8 µg/mL

Q: And the MIC [9]?
A: > 8 µg/mL

Q: And the MIC [10]?
A: > 8 µg/mL

Q: What about the MIC [11] of the same molecule?
A: > 8 µg/mL

Q: And the MIC [12]?
A: > 8 µg/mL
